{
  "source": "patent US4376766A",
  "about": "“Anti-sickling agents” (G.D. Searle & Co., priority 1980, dated 1983)",
  "key": {"[1]": {"test_system": "HbS", "experiment": "Rate of polymerisation of HbS: lag time before onset of gelation after temperature jump", "assay_type": "biochemical, human", "conditions": "different molar ratios of dipeptide:HbS, FIG. 4", "description": "The rate of polymerisation of HbS molecules may be followed by spectrophotometrically monitoring the onset of gelation, after a temperature jump from 0° C. to 37° C., in a concentrated HbS solution. An effective anti-sickling agent should reduce the rate of polymerisation by at least ten-fold."}, "[2]": {"test_system": "sickle cell haemoglobin (HbS)", "experiment": "HbS gelation assay (solubility Csol of deoxygenated HbS)", "assay_type": "biochemical, human", "description": "A number of in vitro methods have been developed for testing the effects of compounds of the functioning of HbS molecules. One such method determines the ability of a compound to inhibit gel formation in HbS solutions. In this gelation assay, Hb solution in phosphate buffer, pH 7.0, at physiological concentrations are mixed at 0° C. with the test compound and deoxygenated by evacuation. […] The solutions are then transferred to centrifuge tubes and equilibrated at 37° C. for 30 minutes before centrifugation at 150,000 g for 1 hour. The supernatant is decanted from the gel and the Hb concentration (Csol) thereof determined spectrophotometrically. For sickle cell haemoglobin without addition of anti-sickling agent, the Csol is typically 17 gm/dl. This compares with a Csol of 23 gm/dl for haemoglobin extracted from individuals having sickle cell trait."}, "[3]": {"test_system": "SS cells", "experiment": "Oxygen dissociation curve (P50) of sickle cells", "assay_type": "cell-based, human", "source_text": "(§1) The uptake of oxygen by haemoglobin as a function of oxygen pressure gives a measure of the oxygen affinity of the haemoglobin and is often described by the value of P50, i.e. the pressure of oxygen at which haemoglobin is 50% saturated with O2. The P50 for HbS is typically higher than that for HbA, the decreased affinity for O2 compensating for the anaemia associated with the disease by facilitating release of O2 to the tissues. An agent which would decrease the P50 of HbS would cause the deoxy-form of the molecule to be less favoured and would thus inhibit polymerisation. It is possible to correlate the degree of oxygenation of sickle erythrocytes with the ability thereof to assume sickled morphology by counting deoxygenated cells using a light microscope. An anti-sickling agent which reduces the number of sickled cells produced at low oxygen concentrations would be effective in preventing or diminishing a crisis."}, "[4]": {"experiment": "Solubility in physiological buffers", "assay_type": "physicochemical"}, "[5]": {"test_system": "whole sickle cells", "experiment": "Microscopic whole cell sickling assay", "assay_type": "cell-based, human", "source_text": "as §1\nThere are fewer sickle cells in the presence of the dipeptide over the entire range of oxygen concentration. […] In vivo, this increased reversibility would reduce the number of circulating irreversibly sickled cells (ISC)."}},
  "data": [
    {"substance": "L-lysine-L-phenylalanine", "values": [
      {"measurement": "lag time before gelation (rate of polymerisation)", "setting": "[1]", "result": "increase in the delay before gelation"},
      {"measurement": "effect on Csol of HbS", "setting": "[2]; FIG. 2", "result": "increase in Csol"},
      {"measurement": "inhibition of gelation of deoxygenated HbS solutions", "setting": "[2]; in vitro", "result": "inhibit the gelation"},
      {"measurement": "Csol (solubility of homozygous sickle cell haemoglobin)", "setting": "[2]; peptide:Hb tetramer ratio of 4.7:1, from linear plot of Csol versus log (peptide:Hb), HbS without agent typically 17 gm/dl", "result": 23, "unit": "gm/dl"},
      {"measurement": "increase of HbS solubility over L-phenylalanine", "setting": "[2]; relative to L-phenylalanine", "result": "four-fold"},
      {"measurement": "P50", "setting": "[3]; SS cells + 25 mM peptide, 3 hours incubation at 37° C., 5:1 molar ratio extra-cellular dipeptide:intra-cellular HbS, 51 mm without peptide", "result": "41 mm of mercury"},
      {"measurement": "oxygen affinity of cells", "setting": "[3]; incubation with peptide", "result": "increase in oxygen affinity"},
      {"measurement": "solubility in physiological buffers", "setting": "[4]", "result": "readily soluble"},
      {"measurement": "inhibition of whole cell sickling", "setting": "[5]", "result": "inhibits whole cell sickling"},
      {"measurement": "proportion of sickled cells becoming unsickled as oxygen is made available", "setting": "[5]; compared with control", "result": "a greater proportion becomes unsickled"},
      {"measurement": "IC50", "setting": "[5]; complete deoxygenation, in vitro dose response, FIG. 9, read-out: extra-cellular concentration reducing the number of sickled cells by 50%", "result": "~5", "unit": "mM"},
      {"measurement": "percentage of sickled cells", "setting": "[5]; pre-incubation with peptide, different partial pressures of oxygen", "result": "substantially reduced"},
      {"measurement": "pre-incubation time sufficient to protect against sickling", "setting": "[5]; zero oxygen tension, FIG. 8", "result": 15, "unit": "min"}
    ]}
  ]
}
